Key:
dopamine receptors = test: PETT baboon studies: striatum and cerebellum radioactivity after i.v. [^18 F]-N-methylspiroperidol, with (-)- or (+)-butaclamol pretreatment; conditions: for effect of butaclamol pretreatment on striatal distribution of [^18 F]-N-methylspiroperidol: 0.5 mg/kg i.v. pretreatment
Excerpt: (§1) A young adult (12 kg) female baboon (Papio anubis) was anesthesized initially with ketamine and subsequently maintained under halothane/nitrous oxide anesthesia for two PETT studies. […] Pett scans were made continually for 4 hrs from the time of radioisotope injection.

dopamine receptor = conditions: cited from earlier work; for prevention of striatal retention of [^18 F]spiroperidol and [^18 F]benperidol: prior administration of butaclamol enantiomer; for retention by the striatum compared with [^18 F]haloperidol: region of high dopamine receptor density
[1] = Metabolic stability and uptake in rat brain (striatum, cerebellum); type: in vivo, rat (male BNL R strain); conditions: rat brain
[2] = Baboon plasma analyses (total plasma radioactivity clearance and unchanged radioligand); conditions: baboon, plasma, plasma radioactivity due to unaltered radioligand, baboon plasma, 10 mins after injection
Excerpt: as §1
Blood was sampled from the femoral artery at initial intervals of 5 secs. Aliquots of plasma were counted to determine the total plasma radioactivity of clearance curves.

Structure (SMILES)	effect of butaclamol pretreatment on striatal distribution of [^18 F]-N-methylspiroperidol (dopamine receptors)	prevention of striatal retention of [^18 F]spiroperidol and [^18 F]benperidol (dopamine receptor)	crossing of the blood brain barrier compared with [^18 F]haloperidol (dopamine receptor; in vivo)	retention by the striatum compared with [^18 F]haloperidol (dopamine receptor)	further results
CC(C)(C)C1(O)CCN2CC3c4ccccc4CCc4cccc(c43)C2C1 (single isomer, unassigned; (+)) [(+)-butaclamol, reference compound]	stereospecific blocking of dopamine receptors in the striatum	prevented			
CC(C)(C)C1(O)CCN2CC3c4ccccc4CCc4cccc(c43)C2C1 (single isomer, unassigned; (-)) [(-)-butaclamol, reference compound]	normal distribution of radioligand	not			
O=C(CCCN1CCC(n2c(=O)[nH]c3ccccc32)CC1)c1ccc([18F])cc1 [[^18 F]benperidol]			to a lesser extent than [^18 F]haloperidol	retained to a greater degree by the striatum	
O=C(CCCN1CCC2(CC1)C(=O)NCN2c1ccccc1)c1ccc([18F])cc1 [[^18 F]spiroperidol]			to a lesser extent than [^18 F]haloperidol	retained to a greater degree by the striatum	specifically bound component of radioactivity in the striatum (striatum minus cerebellum) (dopamine receptors; 4 hrs after injection): still increasing at 4 hrs after injection; metabolism in the rat brain [1]: very little metabolism; uptake into the brain (dopamine receptor; baboons): 0.5-1.0 % of the injected dose; clearance from the striatal areas (dopamine receptor; up to 8 hrs. after injection): no clearance; remaining at 10 min [2]: 72%
O=C(CCCN1CCC(O)(c2ccc(Cl)cc2)CC1)c1ccc(F)cc1 [haloperidol]					brain uptake compared with spiroperidol or benperidol (dopamine receptor; in vivo): higher than spiroperidol or benperidol; egress from the brain (dopamine receptor; in vivo): rapid egress; nonspecific binding (dopamine receptor; in vivo): relatively high nonspecific binding
